For 67 compounds, IC50 and inhibition results are on record in patent US10940139B2, “Compounds that interact with the Ras superfamily for the treatment of cancers, inflammatory diseases, rasopathies, and fibrotic disease” (Shy Therapeutics LLC, priority 2017, dated 2021).

Usually IC50 stands for the concentration that gives 50% inhibition. Read a high IC50 as weaker potency in that assay. The term inhibition denotes the share of the control response that was lost under treatment. Low values mean a response near the control, high ones a response far below the control.

The subject of one test is MAPK phosphorylation in PANC-1 pancreatic cancer cell line. The experiment in a line: MAPK cell-based phosphorylation assay (cell-direct ELISA, EGF stimulation). To be noted: Homo sapiens. How it is done: Cell lines: Tumor-derived pancreatic cancer cell lines PANC-1 were purchased from ATCC and were maintained according to ATCC recommendation.
Method: Cells were plated at 7500 cells/well density in 96-wells plate, starved over night, and the small molecules to be tested were added to the cells in the final concentration of 30 μM with 0.3% DMSO for 6 hours incubation at 37° C. For IC50 value determination, serial dilutions of compounds were added to cells under the same conditions. Next, cells were stimulated with 1.5 ng/ml EGF for 15 min. followed by cell fixation with 4% Formaldehyde in PBS at RT for 20 min. Phosphorylation level of MAPK was determined by Cell-direct ELISA.
Cell-direct ELISA: For each well, cells were permeabilized with PBS-Triton 0.1%, quenched with H2O2 0.6% in PBS-Triton 0.1%, and probed with anti-phospho-MAPK antibodies (R&D Systems) followed by HRP-conjugated secondary antibody (Jackson Immunoresearch, West Grove, Pa.). Next, a solution 50 μM of the fluorescent substrate AmpliFlu Red (Sigma) was added and incubated at RT for 20 min. At the end of the incubation time, fluorescence was measured at 595 nm on a microplate reader (AF2200; Eppendorf, Inc., Hamburg, Germany).
For orientation: ELISA stands for enzyme-linked immunosorbent assay.
Take `Oc1nc(-c2ccccn2)nc2c(-c3cccc4c3OCO4)csc12` [drawing 1193]: the IC50 is < 2 µM.

Consider `Oc1nc(-c2ccccn2)nc2c(-c3ccccc3)csc12` [drawing 1074], for which the IC50 was < 2 µM.

Take `O=C(c1csc2c(O)nc(-c3ccccn3)nc12)N1CCOC(c2cccc(F)c2)C1` (centres unmarked) [drawing 1128]: the IC50 is > 30 µM.

Consider `O=C(CN1CCN(c2nc(-c3ccccn3)nc3sc(-c4ccccc4)cc23)CC1)N1CCCC1` [drawing 1091], for which the IC50 fell in the range of 2 to 10 µM.

Staying with this test, now noted: Homo sapiens, * = tested at 10 μM.
For `CC(C)COc1ccc(-c2csc3c(O)nc(-c4ccccn4)nc23)cn1` [drawing 1216], the inhibition at 10 µM lay within 51 to 75%.

Compound `Oc1nc(-c2ccccn2)nc(Oc2cccc(C(F)(F)F)c2)c1O` [drawing 1318] had an inhibition at 10 µM of 1 to 25%.

`CC(C)Cc1csc2c(O)nc(-c3ccccn3)nc12` [drawing 1255] yielded an inhibition at 10 µM of 76 to 100%.

In turn, `COCCNc1nc(-c2nccn2C)nc2sc(-c3ccccc3)c(-c3ccncc3)c12` [drawing 1356] returned an inhibition at 10 µM of 25 to 50%.

In turn, `Oc1nc(-c2ccccn2)nc2c(-c3cccc4c3OCO4)csc12` [drawing 1193] showed an inhibition at 10 µM of 76 to 100%.

In turn, `Oc1nc(-c2ccccn2)nc2c(-c3ccnn3-c3ccccn3)csc12` [drawing 1240] returned an inhibition at 10 µM of 1 to 25%.

On to `COc1ccnc(-c2nc(O)c3c(C(F)(F)F)csc3n2)c1` [drawing 1186], for which the inhibition at 10 µM fell in the range of 1 to 25%.

On to `NC(=O)C1CCCN1C(=O)c1cccc(-c2cc3nc(N)nc(O)c3s2)c1` (centres unmarked) [drawing 1304], for which the inhibition at 10 µM was in the range of 1 to 25%.

For `O=C(c1cc2nc(-c3ccccn3)nc(O)c2s1)N1CCN(c2ccccc2)CC1` [drawing 1188], the inhibition at 10 µM fell in the range of 1 to 25%.

The compound `COCCNc1nc(-c2nccn2C)nc2sc(-c3ccccc3Cl)c(-c3ccccc3)c12` [drawing 1341] came in with an inhibition at 10 µM of 76 to 100%.

On to `COc1c(O)nc(-c2ccccn2)nc1Oc1cccc(C(F)(F)F)c1` [drawing 1317], for which the inhibition at 10 µM was in the range of 1 to 25%.

The compound `COCCNc1nc(-c2ccccn2)nc2c1c(-c1ccccc1)nn2-c1ccccn1` [drawing 1298] had an inhibition at 10 µM of 1 to 25%.

`Oc1nc(-c2ccccn2)nc2c(CC3CNC3)csc12` [drawing 1279]: testing at 10 µM gave an inhibition of 0%.

Regarding `Cn1ccnc1-c1nc(O)c2c(-c3ccccc3)c(-c3ccccc3)sc2n1` [drawing 1296], the inhibition at 10 µM amounted to 0%.

`COc1cnc(CNC(=O)c2sc3c(O)nc(-c4ccccn4)nc3c2C)[nH]c1=O` [drawing 1284]: the inhibition at 10 µM was found to be 0%.

The compound `Cc1sc2c(O)nc(-c3ccccn3)nc2c1Br` [drawing 1282] came in with an inhibition at 10 µM of 76 to 100%.

`COCC(C)Nc1nc(-c2ccccn2)nc(C(=O)NCCCc2c[nH]cn2)c1Oc1ccccc1` (centres unmarked) [drawing 1310] yielded an inhibition at 10 µM of 1 to 25%.

Compound `CC(C)(O)c1ccc(-c2csc3c(O)nc(-c4ccccn4)nc23)c(F)c1` [drawing 1219] gave an inhibition at 10 µM of 76 to 100%.

Compound `O=C(NCCc1ccncn1)c1csc2nc(-c3ccccn3)nc(N3CCOCC3)c12` [drawing 1261] gave an inhibition at 10 µM of 0%.

Compound `COCCNc1nc(-c2cn(C)cn2)nc2sc(C)c(-c3ccccc3)c12` [drawing 1345] had an inhibition at 10 µM of 25 to 50%.

For the compound `Nc1nc(O)c2sc(-c3cccc(C(=O)NCc4ncc[nH]4)c3)cc2n1` [drawing 1305], testing at 10 µM gave an inhibition of 0%.

Compound `COc1ccc(COC[C@H]2O[C@@H](c3csc4c(=O)[nH]c(-c5ccccn5)nc34)[C@H](O)[C@@H]2O)cc1` [drawing 1293] yielded an inhibition at 10 µM of 0%.

`COc1ccc(CCNC(=O)c2csc3nc(-c4ccccn4)nc(N4CCS(=O)(=O)CC4)c23)cn1` [drawing 1195] had an inhibition at 10 µM of 1 to 25%.

Turning to `Oc1nc(-c2ccccn2)nc2sc3c(c12)CCNC3` [drawing 1194], the inhibition at 10 µM was in the range of 25 to 50%.

`COc1cnc(CNC(=O)c2c(C)sc3c(O)nc(-c4ccccn4)nc23)[nH]c1=O` [drawing 1283] gave an inhibition at 10 µM of 0%.

Compound `COc1ccc(-c2csc3c(O)nc(-c4ccccn4)nc23)c(C)c1` [drawing 1220] displayed an inhibition at 10 µM of 76 to 100%.

Regarding `Nc1nc(O)c2sc(-c3cccc(C(=O)NC4CCNC4=O)c3)cc2n1` (centres unmarked) [drawing 1302], the inhibition at 10 µM amounted to 0%.

`Cc1sc2c(O)nc(-c3nccn3C)nc2c1-c1ccccc1` [drawing 1354]: testing at 10 µM gave an inhibition of 0%.

For the compound `Cn1ccnc1-c1nc(O)c2sc(-c3ccccc3)c(-c3cccc(C(F)(F)F)c3)c2n1` [drawing 1352], the inhibition at 10 µM was determined as 0%.

The test is the same for the next values; noted with them: Homo sapiens, at 30 μM.
Regarding `N#Cc1ccc(CC(=O)Nc2nc(-c3ccccn3)nc3sccc23)cc1` [drawing 1176], the inhibition at 30 µM lay in the range of 76 to 100%.

Compound `CC(C)C1=C(O)C2(CC2c2ccc(-c3ccccc3)cc2)C(C)CC1` (centres unmarked) [drawing 1056] showed an inhibition at 30 µM of 1 to 25%.

Compound `O=[N+]([O-])c1cc(C(F)(F)F)ccc1Sc1nc2c(c(C(F)(F)F)n1)CCCC2` came in with an inhibition at 30 µM of 1 to 25%.

Compound `Cc1nc2nc(C(F)(F)F)nn2c(C)c1CC(=O)Nc1nnc(-c2ccccn2)[nH]1` [drawing 1020] came in with an inhibition at 30 µM of 1 to 25%.

Regarding `O=c1nc(-c2ccccn2)[nH]c2c1sc1ccccc12` [drawing 1038], the inhibition at 30 µM was in the range of 76 to 100%.

With `Oc1nc(-c2ccccn2)nc2c(-c3ccccc3)csc12` [drawing 1074], the inhibition at 30 µM fell in the range of 76 to 100%.

In turn, `N#Cc1cccc(N2CCN(C(=O)c3csc4c(O)nc(-c5ccccn5)nc34)CC2)c1` [drawing 1139] returned an inhibition at 30 µM of 1 to 25%.

Consider `CC(C(=O)Nc1ccnc(-c2ccccn2)n1)c1ccc(C#N)cc1` (centres unmarked) [drawing 1158], for which the inhibition at 30 µM fell in the range of 1 to 25%.

For the compound `Oc1ccc(C2(c3cccc(Cl)c3)CCCC2)cc1` [drawing 1047], the inhibition at 30 µM fell in the range of 76 to 100%.

`O=C(Nc1nnc(-c2ccccn2)[nH]1)C1CCCN(c2ncccn2)C1` (centres unmarked) [drawing 1015] had an inhibition at 30 µM of 1 to 25%.

In turn, `Cc1cccc(CN(Cc2ccccn2)Cc2nccn2C)c1` [drawing 1045] returned an inhibition at 30 µM of 25 to 50%.

For the compound `Cc1cnc(-c2ccccn2)nc1NC(=O)Cc1ccc(C#N)cc1` [drawing 1173], the inhibition at 30 µM was 51 to 75%.

For the compound `O=C(Nc1nnc(-c2ccccn2)[nH]1)C1CCCC(C(F)(F)F)C1` (centres unmarked) [drawing 1017], the inhibition at 30 µM was in the range of 51 to 75%.

Compound `N#Cc1ccccc1N1CCN(C(=O)c2csc3c(O)nc(-c4ccccn4)nc23)CC1` [drawing 1122] gave an inhibition at 30 µM of 1 to 25%.

The compound `O=C(Nc1nc(-c2ccccn2)cs1)C1CC(=O)N(c2ccc3c(c2)OCCO3)C1` (centres unmarked) [drawing 1031] had an inhibition at 30 µM of 25 to 50%.

`O=C(Nc1nnc(-c2ccccn2)[nH]1)c1ncoc1-c1cccs1` [drawing 1009] returned an inhibition at 30 µM of 25 to 50%.

On to `O=C(c1csc2c(O)nc(-c3ccccn3)nc12)N1CCOC(c2cccc(F)c2)C1` (centres unmarked) [drawing 1128], for which the inhibition at 30 µM was in the range of 1 to 25%.

In turn, `COc1cnc(CN)[nH]c1=O` [drawing 1163] came in with an inhibition at 30 µM of 1 to 25%.

With `CC(C)NC(=O)Nc1cccc(C(=O)Nc2nnc(-c3ccccn3)[nH]2)c1` [drawing 993], the inhibition at 30 µM was in the range of 1 to 25%.

Turning to `O=c1nc(-c2ccccn2)[nH]c2sc(-c3ccccc3)cc12` [drawing 1037], the inhibition at 30 µM lay in the range of 25 to 50%.

Take `O=C(Nc1nc(-c2ccccn2)cs1)c1cccnc1` [drawing 1032]: the inhibition at 30 µM lay within 1 to 25%.

Take `COc1cccc(CN2CCN(C(=O)c3csc4c(O)nc(-c5ccccn5)nc34)CC2)c1` [drawing 1145]: the inhibition at 30 µM was in the range of 25 to 50%.

In turn, `O=C(Cc1cccc(F)c1)Nc1nc(-c2ccccn2)cs1` [drawing 1033] displayed an inhibition at 30 µM of 1 to 25%.

`O=C(CN1CCN(c2nc(-c3ccccn3)nc3sc(-c4ccccc4)cc23)CC1)N1CCCC1` [drawing 1091] registered an inhibition at 30 µM of 76 to 100%.

The compound `O=C(NCCc1cnc(O)nc1)c1csc2nc(-c3ccccn3)nc(N3CCOCC3)c12` [drawing 1169] yielded an inhibition at 30 µM of 25 to 50%.

In the case of `O=C(Nc1nnc(-c2ccccn2)[nH]1)c1ccn(-c2cccc(F)c2)n1` [drawing 999], the inhibition at 30 µM was in the range of 1 to 25%.

In the case of `O=C(c1csc2c(O)nc(-c3ccccn3)nc12)N1CCOC(c2ccc(Cl)cc2)C1` (centres unmarked) [drawing 1127], the inhibition at 30 µM lay in the range of 1 to 25%.

`COc1ccc(CN2CCN(C(=O)c3csc4c(O)nc(-c5ccccn5)nc34)CC2)cc1` [drawing 1124] yielded an inhibition at 30 µM of 1 to 25%.

For the compound `CSc1nc(C2CC2)cc(C(=O)NCCc2ccc(S(=O)(=O)NC(=O)c3cc(C4CC4)nc(SC)c3C#N)cc2)c1C#N` [drawing 1055], the inhibition at 30 µM is 76 to 100%.

The compound `COc1cnc(CNC(=O)Cn2cnc3nc(-c4ccccn4)nc(N4CCOCC4)c32)[nH]c1=O` [drawing 1183] registered an inhibition at 30 µM of 1 to 25%.

The compound `O=C(c1csc2c(O)nc(-c3ccccn3)nc12)N1CCOC(c2ccccc2Cl)C1` (centres unmarked) [drawing 1149] displayed an inhibition at 30 µM of 1 to 25%.

`COc1ccc(CCC(=O)N2CCCc3c(O)nc(-c4ccccn4)nc32)cc1` [drawing 1058] showed an inhibition at 30 µM of 25 to 50%.

Compound `O=c1nc(-c2ccccn2)[nH]c2scc(-c3ccccc3Cl)c12` [drawing 1036] yielded an inhibition at 30 µM of 25 to 50%.

`O=C(c1csc2c(O)nc(-c3ccccn3)nc12)N1CCNC(c2ccc(F)cc2)C1` (centres unmarked) [drawing 1167] displayed an inhibition at 30 µM of 1 to 25%.

`O=S1(=O)CCC(N2CCN(c3nc(-c4ccccn4)nc4scc(-c5ccccc5)c34)CC2)C1` (centres unmarked) [drawing 1093] yielded an inhibition at 30 µM of 1 to 25%.

`COc1ccc(CC(=O)Nc2nnc(-c3ccccn3)[nH]2)cc1` [drawing 1006] yielded an inhibition at 30 µM of 1 to 25%.

`O=C(c1csc2c(O)nc(-c3ccccn3)nc12)N1CCNC(c2cccc(F)c2)C1` (centres unmarked) [drawing 1130]: the inhibition at 30 µM fell in the range of 1 to 25%.

The compound `CC(O)CNc1nc(-c2ccccn2)nc2scc(-c3ccccc3)c12` (centres unmarked) [drawing 1042] showed an inhibition at 30 µM of 25 to 50%.
